Tests used:
[1] = test system: Spontaneously hypertensive rats (SHR); experiment: Acute Efficacy in Spontaneously Hypertensive Rats (SHR); format: in vivo, rat; conditions: single oral gavage
From the text: Acute Efficacy in Spontaneously Hypertensive Rats (SHR)
Spontaneously hypertensive rats (SHR, male, Charles River) were implanted with DSI TA 11PA-C40 telemetry device (Data Sciences, Inc., St. Paul, Minn.) under isoflurane or ketamine/metomidine anesthesia. The telemetry unit catheter was inserted into the descending aorta via the femoral artery and the telemetry device was implanted subcutaneously in the left flank area. Animals were allowed to recover from surgery for 14 days before the start of any studies. Blood pressure, heart rate, and activity signals from conscious, freely moving rats were recorded continuously for 30 seconds every 10 min. On the day prior to administration of compound, a single oral dose of vehicle (10% transcutol/20% Cremophor/70% water) was administered to all animals to establish baseline control data. The blood pressure lowering efficacy of compound (PO) or vehicle was evaluated following a single oral gavage. Data were collected as hourly averages, and changes in blood pressure were calculated by subtracting control baseline data on an hourly basis. Animals were maintained on normal diet with a 12 h light-dark cycle.
Maximum peak decreases of systolic blood pressure (SBP) in SHR at a particular P.O. dose (mpk milligrams per kilogram) for the following Example compounds are provided. Category A=SBP in SHRs<25 mmHg; Category B=SBP in SHRs 25-40 mmHg; Category C=SBP in SHRs>40 mmHg.

sGC α1/β1 heterodimer = target: T1, sGC α1/β1 heterodimer (Homo sapiens, UniProt Q02108+Q02153); experiment: Cell-Based sGC Functional Assay (CASA Assay); conditions: CHO-K1/sGC cells; for EC50: intracellular cGMP by HTRF, 1 hr at 37° C., IP from 4P fit, presence or absence of 1 μM DETA-NO not given; for Emax: cGMP as percentage of maximum cGMP production of Compound A (=100% activation), read-out: % ACT (percent activation)
T1 construct: expressed in transfected cells
T1 sequence (Q02108 1-690): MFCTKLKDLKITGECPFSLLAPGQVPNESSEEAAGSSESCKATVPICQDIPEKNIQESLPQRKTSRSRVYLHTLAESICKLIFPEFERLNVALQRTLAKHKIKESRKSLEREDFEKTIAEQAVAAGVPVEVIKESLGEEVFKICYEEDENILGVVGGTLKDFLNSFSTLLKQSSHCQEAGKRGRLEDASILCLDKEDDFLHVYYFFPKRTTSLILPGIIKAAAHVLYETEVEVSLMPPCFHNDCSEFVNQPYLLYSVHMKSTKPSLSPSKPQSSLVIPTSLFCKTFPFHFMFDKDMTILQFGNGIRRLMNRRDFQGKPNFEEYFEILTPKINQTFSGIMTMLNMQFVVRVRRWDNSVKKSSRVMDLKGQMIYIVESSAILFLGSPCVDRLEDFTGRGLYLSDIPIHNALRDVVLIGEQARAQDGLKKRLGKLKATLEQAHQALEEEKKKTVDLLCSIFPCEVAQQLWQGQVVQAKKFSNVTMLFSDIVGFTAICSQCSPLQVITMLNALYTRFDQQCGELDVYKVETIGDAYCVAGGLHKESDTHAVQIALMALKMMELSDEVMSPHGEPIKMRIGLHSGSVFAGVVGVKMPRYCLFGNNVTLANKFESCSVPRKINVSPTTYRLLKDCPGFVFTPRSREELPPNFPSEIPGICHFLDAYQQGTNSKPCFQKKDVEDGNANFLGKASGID
T1 sequence (Q02153 1-619): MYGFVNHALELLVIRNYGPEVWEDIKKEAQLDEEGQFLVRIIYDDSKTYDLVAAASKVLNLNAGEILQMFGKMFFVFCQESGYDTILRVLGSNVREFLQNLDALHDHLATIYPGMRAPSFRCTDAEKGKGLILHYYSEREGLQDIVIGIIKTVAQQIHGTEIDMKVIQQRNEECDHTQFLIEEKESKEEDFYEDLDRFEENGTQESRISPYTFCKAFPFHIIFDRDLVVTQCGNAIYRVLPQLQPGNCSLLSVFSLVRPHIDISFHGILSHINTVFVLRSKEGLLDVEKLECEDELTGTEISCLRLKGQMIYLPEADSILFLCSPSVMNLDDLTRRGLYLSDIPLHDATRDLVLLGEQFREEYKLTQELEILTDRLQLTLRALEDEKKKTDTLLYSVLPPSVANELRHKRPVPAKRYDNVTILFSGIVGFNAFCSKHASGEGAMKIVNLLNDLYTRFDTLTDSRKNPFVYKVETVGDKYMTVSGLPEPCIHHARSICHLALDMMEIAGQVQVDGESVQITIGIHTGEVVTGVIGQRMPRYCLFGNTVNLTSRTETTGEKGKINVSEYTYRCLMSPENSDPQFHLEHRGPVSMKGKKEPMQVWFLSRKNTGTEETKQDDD
How it was run: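 cGMP accumulation was quantified by HTRF in stable human sGC α1/β1 CHO-K1 cells after 1 hr at 37 °C with compound, 0.5 mM IBMX and 2.5% DMSO. Runs were done in the presence and absence of 1 μM of the NO donor DETA-NO. Activation was normalised to the reference heme-dependent activator maximum (100%), and a 4P fit gave IP and maximum fold induction.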

`[2H]C([2H])([2H])n1nnc2c(-c3nc(N)c4c(n3)NC(=O)C4(c3ccc(F)cc3)C3CC3)nc(CCC(F)(F)C(F)(F)F)nc21` (single isomer, unassigned) [Example 69, 4-Amino-5-cyclopropyl-5-(4-fluorophenyl)-2-(5-(3,3,4,4,4-pentafluorobutyl-3-trideuteriomethyl)-3H-[1,2,3]triazolo[4,5-d]pyrimidin-7-yl)-5H-pyrrolo[2,3-d]pyrimidin-6(7H)-one] was tested, and the “Maximum peak decrease of systolic blood pressure (SBP) in SHR, Category” value (“Maximum peak decrease” for short) ([1]; Dose 3 mpk P.O.) was “B (Category B=SBP in SHRs 25-40 mmHg)”, the EC50 (sGC α1/β1 heterodimer) was 1.14 µM and the Emax (sGC α1/β1 heterodimer) was 98%.

For `[2H]C([2H])([2H])n1nnc2c(-c3nc(N)c4c(n3)NC(=O)C4(C)c3ccc(OC)cc3)nc(CCC(F)(F)C(F)(F)F)nc21` (single isomer, unassigned) [Example 71, 4-Amino-5-(4-methoxyphenyl)-5-methyl-2-(5-(3,3,4,4,4-pentafluorobutyl-3-trideuteriomethyl)-3H-[1,2,3]triazolo[4,5-d]pyrimidin-7-yl)-5H-pyrrolo[2,3-d]pyrimidin-6(7H)-one], the “Maximum peak decrease” value ([1]; Dose 1 mpk P.O.) was “A (Category A=SBP in SHRs<25 mmHg)”, the EC50 (sGC α1/β1 heterodimer) was 0.594 µM and the Emax (sGC α1/β1 heterodimer) was 67%.

With `[2H]C([2H])([2H])n1nnc2c(-c3nc(N)c4c(n3)NC(=O)C4(C)c3ccc(Cl)cc3F)nc(CCC(F)(F)C(F)(F)F)nc21` (single isomer, unassigned) [Example 73, 4-Amino-5-(4-chloro-2-fluorophenyl)-5-methyl-2-(5-(3,3,4,4,4-pentafluorobutyl-3-trideuteriomethyl)-3H-[1,2,3]triazolo[4,5-d]pyrimidin-7-yl)-5H-pyrrolo[2,3-d]pyrimidin-6(7H)-one] the “Maximum peak decrease” value ([1]; Dose 3 mpk P.O.) was “A (Category A=SBP in SHRs<25 mmHg)”, the EC50 (sGC α1/β1 heterodimer) was 0.429 µM and the Emax (sGC α1/β1 heterodimer) was 97%.

For `[2H]C([2H])([2H])n1ncc2c(-c3nc(N)c4c(n3)NC(=O)C4(C)C)nc(CCC(F)(F)C(F)(F)F)nc21` [Example 12, 4-Amino-5,5-dimethyl-2-(6-(3,3,4,4,4-pentafluorobutyl)-1-trideuteriomethyl-1H-pyrazolo[3,4-d]pyrimidin-4-yl)-5H-pyrrolo[2,3-d]pyrimidin-6(7H)-one], the “Maximum peak decrease” value ([1]; Dose 1 mpk P.O.) was “B (Category B=SBP in SHRs 25-40 mmHg)”, the EC50 (sGC α1/β1 heterodimer) was 0.285 µM and the Emax (sGC α1/β1 heterodimer) was 75%.

Reference: patent publication US9783552B2, “Soluble guanylate cyclase activators” (MERCK SHARP & DOHME CORP., priority 2013, dated 2017)
